Assay results taken from paper PMC5394417, “Investigating the molecular mechanism of positive and negative allosteric modulators in the calcium-sensing receptor dimer” (Scientific Reports, 2017).

Molecular target: T1, HA-S147A CaSR mutant (Rattus norvegicus, UniProt P48442, S147A)
T1 construct: mGluR5 signal peptide (N); expressed in transfected cells; host or cells: HEK293T
T1 sequence (P48442 20-1079 S147A): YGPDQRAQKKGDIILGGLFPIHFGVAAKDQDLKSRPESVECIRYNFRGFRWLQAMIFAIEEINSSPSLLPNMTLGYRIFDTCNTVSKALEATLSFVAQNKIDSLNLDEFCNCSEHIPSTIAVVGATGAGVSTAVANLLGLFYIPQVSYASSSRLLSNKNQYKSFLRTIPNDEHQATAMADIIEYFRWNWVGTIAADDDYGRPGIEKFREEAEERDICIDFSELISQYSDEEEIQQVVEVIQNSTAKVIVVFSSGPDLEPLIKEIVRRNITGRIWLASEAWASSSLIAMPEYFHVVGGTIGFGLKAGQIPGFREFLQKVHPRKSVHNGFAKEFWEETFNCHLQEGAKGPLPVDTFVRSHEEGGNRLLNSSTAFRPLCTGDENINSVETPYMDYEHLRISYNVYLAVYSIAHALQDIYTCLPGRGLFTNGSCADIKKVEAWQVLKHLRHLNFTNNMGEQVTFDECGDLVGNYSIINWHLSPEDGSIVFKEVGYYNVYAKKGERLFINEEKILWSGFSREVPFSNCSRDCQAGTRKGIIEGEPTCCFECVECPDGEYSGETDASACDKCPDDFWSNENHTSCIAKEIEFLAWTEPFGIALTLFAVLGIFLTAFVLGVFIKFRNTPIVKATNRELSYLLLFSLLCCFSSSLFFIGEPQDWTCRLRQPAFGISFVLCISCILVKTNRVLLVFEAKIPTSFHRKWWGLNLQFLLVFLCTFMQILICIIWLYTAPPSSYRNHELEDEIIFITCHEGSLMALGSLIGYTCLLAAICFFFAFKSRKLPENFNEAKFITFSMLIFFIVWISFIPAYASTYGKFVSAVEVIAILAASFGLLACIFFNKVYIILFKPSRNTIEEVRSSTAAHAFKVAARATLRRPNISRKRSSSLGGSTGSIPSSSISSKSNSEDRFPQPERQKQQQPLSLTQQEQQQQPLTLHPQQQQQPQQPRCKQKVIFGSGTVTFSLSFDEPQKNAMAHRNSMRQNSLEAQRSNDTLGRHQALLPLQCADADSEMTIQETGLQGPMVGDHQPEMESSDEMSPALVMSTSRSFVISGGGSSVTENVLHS
Assay: IP-One assay, HEK293T transiently transfected
Type: cell-based

In the case of [Ca+2] [Ca^2+], the EC50 (Ca^2+ alone) is reported as 9.07 mM, the “Hill coefficient ± S.E.M.” value (Ca^2+ alone) is reported as 3.50 ± 0.26 and the “pEC50 ± S.E.M.” value (Ca^2+ alone) is reported as 2.04 ± 0.01. For the same molecule, the “Max ± S.E.M.” value (normalized to maximum response of WT CaSR) was 150 ± 17%.
